This is an account of results in patent US20100221445A1, “O-DESMETHYLVENLAFAXINE AND BAZEDOXIFENE COMBINATION PRODUCT AND USES THEREOF” (Wyeth LLC, priority 2005, published 2010).

The test system of series [1] is uterine response. Conditions: preclinical models of uterine stimulation; cited from earlier work.
The subject of series [2] is bone loss and cholesterol. Conditions: ovariectomized rat model of osteopenia; cited from earlier work.
The test system of series [3] is MCF-7 cell line (human breast cancer cell line). As to conditions: MCF-7 human breast cancer cell line; cited from earlier work.
Series [4] is described as follows: Dissolution of bilayer tablets in 0.2% Tween 80/10 mM Acetic acid at 37° C. It counts as physicochemical.
Series [5] in a line: Storage stability of DVS/Bazedoxifene bilayered tablets (strength, % recovery). Conditions: 25/60 and 40/75 for 3 months. As for the experimental part: 80 DVS/Bazedoxifene bilayered tablets (150 mg/40 mg respectively) were stored at 25° C./60 relative humidity (RH) and 40° C./75 RH in a 50-mL high density polyethylene (HDPE) closed container for 2 weeks, 1 month and 3 months. The strengths of each active constituents and the dissolution rate in 0.2% Tween 80/10 mM Acetic acid at 37° C. were monitored.

Series [6] deals with reuptake of serotonin and norepinephrine. As to conditions: cited from earlier work.

For `Cc1c(-c2ccc(O)cc2)n(Cc2ccc(OCCN3CCCCCC3)cc2)c2ccc(O)cc12` [BZA, 1-[4-(2-azepan-1-yl-ethoxy)-benzyl]-2-(4-hydroxy-phenyl)-3-methyl-1H-indol-5-ol acetic acid], the “Stimulation of uterine response” value in series [1] was “little or no stimulation”. Further, the “Effect in preventing bone loss and reducing cholesterol” value in series [2] is reported as “estrogen agonist-like effect”. In addition, in series [3], the “Behaviour in MCF-7 cell line” value is recorded as “estrogen antagonist”.

As for `CN(C)CC(c1ccc(O)cc1)C1(O)CCCCC1` (stereo not shown) [DVS], the entries for the “Release (in words)” value in series [4] (first 2 hours) and in series [4] (in 24 hours) were “slow release” and “complete release”, respectively.

With `CN(C)CC(c1ccc(O)cc1)C1(O)CCCCC1` (stereo not shown) [ODV, 1-[2-(dimethylamino)-1-(4-phenol)ethyl]-cyclohexanol], in series [5], the “Stability on storage (in words)” value is “stable”. Moreover, the “Blockade of reuptake of serotonin and norepinephrine” value in series [6] is “selectively blocks”.
